pIC50: −log10 of the molar value.
Tests used:
full-length human BTK = molecular target: T1, full-length human BTK (Homo sapiens, UniProt Q06187); assay: Assay A: microfluidic off-chip mobility shift assay for potency against BTK enzyme; format: biochemical; settings: 90 min at 27° C.
T1 construct: full-length human BTK (08-080) from CarnaBio USA, Inc; purchased CarnaBio USA, Inc., Natick, Mass; 08-080
Excerpt: Assay A: Microfluidic Off-Chip Mobility Shift Assay Protocol for Potency Assessment Against BTK Enzyme
The protocol below describes microfluidic, off-chip mobility shift kinase assay to measure inherent potency of compounds against BTK enzyme. The mechanics of the assay platform are best described by the vendor (Caliper Life Sciences, a PerkinElmer Company, Hopkinton, Mass.) on their website at the following URL:
Briefly, 2.5× stocks of full-length human BTK (08-080) from CarnaBio USA, Inc., Natick, Mass., 1.6×ATP and appropriate kinKDR peptide substrate (FITC-AHA-EEPLYWSFPAKKK-NH2; developed in-house) were prepared in kinase reaction buffer consisting of 25 mM MgCl2, 0.015% Brij-35 (30%), 100 mM Hepes, pH 7.5, and 10 mM DTT.
5 uL of enzyme buffer and 7.5 uL of ATP/kinKDR peptide substrate mix were added to Matrix (#115304) 384-well, sterile, polypropylene plates (Thermo Fisher Scientific, Hudson, N.H.) with 125 nL of serially diluted compounds prepared in 100% DMSO, and incubated for 90 min. at 27° C. following the incubation period, reactions were stopped by adding 60 uL stop buffer consisting of 100 mM Hepes, pH 7.5, 0.015% Brij-35 (30%), 0.277% Coating Reagent #3 (Caliper Life Sciences, Mountain View, Calif.), 5% DMSO. Stopped reactions were monitored at −2 PSI, −3000 V/−700 V in a LabChip 3000 plate reader from Caliper Life Sciences, a PerkinElmer Company (Hopkinton, Mass.), and the activity was measured by off-chip mobility shift assay measuring the charge/mass difference between substrate and product resulting from peptide phosphorilation. IC50 and efficacy were determined by plotting log [Inhibitor] vs. % Activity in GeneData Screener (Basel, Switzerland).

[1] = molecular target: T2, BTK C481S enzyme (His-TEV-hsBTK(328-659)(C481S)) (Homo sapiens, UniProt Q06187, C481S); assay: Assay B: microfluidic off-chip mobility shift assay for potency against BTK C481S enzyme; format: biochemical; settings: 90 min at 25° C.
T2 construct: His-TEV-hsBTK(328-659)(C481S); His (N); TEV cleavage site (N)
Excerpt: Assay B: Microfluidic Off-Chip Mobility Shift Assay Protocol for Potency Assessment Against BTK C481S Enzyme
The protocol below describes a microfluidic, off-chip mobility shift kinase assay to measure inherent potency of compounds against BTK C481S enzyme. The mechanics of the assay platform are described by the vendor (PerkinElmer, Hopkinton, Mass.) on their website at the following URL: http://caliperls.com.
Briefly, 2.5× stocks of His-TEV-hsBTK(328-659)(C481S) from the Merck Serono Protein Purification Laboratory in Darmstadt, Germany (PCS, Q27/234), 1.6×ATP and appropriate KinKDR peptide substrate (FITC-AHA-EEPLYWSFPAKKK-NH2; Tufts University Core Facility custom synthesis) were prepared in kinase reaction buffer consisting of 25 mM MgCl2, 0.015% Brij-35 (30%), 100 mM HEPES, pH 7.5, and 10 mM DTT.
5 uL of enzyme buffer and 7.5 uL of ATP/KinKDR peptide substrate mix were added to Matrix (#4315) 384-well, sterile, flat-bottom polypropylene plates (Thermo Fisher Scientific, Hudson, N.H.) with 125 nL of serially diluted compounds prepared in 100% DMSO, and incubated for 90 min. at 25° C. Following the incubation period, reactions were terminated by adding 65 uL quench buffer consisting of 100 mM HEPES, pH 7.5, 0.015% Brij-35 (30%), 0.277% Coating Reagent #3 (PerkinElmer, Mountain View, Calif.), 5% DMSO. Terminated reactions were monitored at −2 PSI, −3000 V/−700 Volts in a LabChip 3000 plate reader from Caliper Life Sciences, a PerkinElmer Company (Hopkinton, Mass.), and the activity was quantified by laser-induced fluorescence measuring the charge/mass difference between substrate and product resulting from peptide phosphorylation. IC50 and efficacy were determined by plotting log [Inhibitor] vs. % Activity in GeneData Screener (Basel, Switzerland).

T1 sequence (Q06187 whole entry): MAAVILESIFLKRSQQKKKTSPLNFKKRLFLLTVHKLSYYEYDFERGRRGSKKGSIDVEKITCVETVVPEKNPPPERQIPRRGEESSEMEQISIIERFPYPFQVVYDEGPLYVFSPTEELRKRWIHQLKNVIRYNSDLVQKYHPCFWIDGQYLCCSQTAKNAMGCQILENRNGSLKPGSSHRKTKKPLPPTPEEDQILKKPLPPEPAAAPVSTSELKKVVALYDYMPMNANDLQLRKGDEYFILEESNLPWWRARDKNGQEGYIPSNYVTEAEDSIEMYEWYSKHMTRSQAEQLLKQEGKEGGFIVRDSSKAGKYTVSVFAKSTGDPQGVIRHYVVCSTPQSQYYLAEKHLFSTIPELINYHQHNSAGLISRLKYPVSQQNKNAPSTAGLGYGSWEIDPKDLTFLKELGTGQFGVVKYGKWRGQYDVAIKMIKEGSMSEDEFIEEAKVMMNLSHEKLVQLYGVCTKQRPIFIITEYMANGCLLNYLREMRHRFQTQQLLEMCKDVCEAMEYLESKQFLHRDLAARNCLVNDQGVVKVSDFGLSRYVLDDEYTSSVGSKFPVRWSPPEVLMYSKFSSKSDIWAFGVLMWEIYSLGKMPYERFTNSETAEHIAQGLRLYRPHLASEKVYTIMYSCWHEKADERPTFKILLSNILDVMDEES
T2 sequence (Q06187 328-659 C481S): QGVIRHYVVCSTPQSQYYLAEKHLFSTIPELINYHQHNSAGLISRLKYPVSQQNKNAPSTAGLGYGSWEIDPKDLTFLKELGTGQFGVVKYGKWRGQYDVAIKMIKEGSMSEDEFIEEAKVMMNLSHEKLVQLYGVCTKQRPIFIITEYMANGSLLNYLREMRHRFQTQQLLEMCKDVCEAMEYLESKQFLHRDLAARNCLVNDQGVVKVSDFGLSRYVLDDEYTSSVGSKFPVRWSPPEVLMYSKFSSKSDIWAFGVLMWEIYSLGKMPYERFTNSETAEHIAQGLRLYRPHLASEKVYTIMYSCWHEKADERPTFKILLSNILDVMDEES

Structure (SMILES) | pIC50 (full-length human BTK) | pIC50 [1]
COCCOc1ccc(Nc2ncc(F)c(NCC3CCN(C(=O)c4ccc(C(C)(C)C)cc4)C3)n2)cc1 (racemic) [Compound 8, (4-(tert-butyl)phenyl)(3-(((5-fluoro-2-((4-(2-methoxyethoxy)phenyl)amino)pyrimidin-4-yl)amino)methyl)pyrrolidin-1-yl)methanone] | < 5.30 | 
COCCOc1ccc(Nc2ncc(F)c(N3CCC(CNC(=O)c4ccc(C(C)(C)C)cc4)C3)n2)cc1 (racemic) [Compound 17, 4-(tert-butyl)-N-((1-(5-fluoro-2-((4-(2-methoxyethoxy)phenyl)amino)pyrimidin-4-yl)pyrrolidin-3-yl)methyl)benzamide] | < 5.30 | 
COCCOc1ccc(Nc2ncc(F)c(NC3CCCC(NC(=O)c4cc5c(s4)CCCC5)C3O)n2)cc1 (racemic) [Compound 26] | > 7.00 | > 7.00
COCCOc1ccc(Nc2ncc(F)c(NC3CCCC(NC(=O)c4cc(C(C)(C)C)on4)C3O)n2)cc1 (racemic) [Compound 27] | 6.00 to 7.00 | 6.00 to 7.00
COCCOc1ccc(Nc2ncc(F)c(N3CCC[C@@H](NC(=O)CNc4cccc(Cl)c4)C3)n2)cc1 [Compound 2, (R)-2-((3-chlorophenyl)amino)-N-(1-(5-fluoro-2-((4-(2-methoxyethoxy)phenyl)amino)pyrimidin-4-yl)piperidin-3-yl)acetamide] | < 5.30 | < 5.30
COCCOc1ccc(Nc2ncc(F)c(Nc3cccc(NC(=O)c4ccc(C(C)(C)C)cc4)c3)n2)cc1 [Compound 6] | 5.30 to 6.00 | 5.30 to 6.00
COCCOc1ccc(Nc2ncc(F)c(N3CC[C@H](NC(=O)c4ccc(C(C)(C)C)cc4)C3)n2)cc1 [Compound 9, (S)-4-(tert-butyl)-N-(1-(5-fluoro-2-((4-(2-methoxyethoxy)phenyl)amino)pyrimidin-4-yl)pyrrolidin-3-yl)benzamide] | < 5.30 | 
COCCOc1ccc(Nc2ncc(F)c(NC3CCCC(NC(=O)c4ccc(N(C)C)cc4)C3)n2)cc1 (stereo not shown) [Compound 11, 4-Dimethylamino-N-(3-{5-fluoro-2-[4-(2-methoxy-ethoxy)-phenylamino]-pyrimidin-4-ylamino}-cyclohexyl)-benzamide] | 6.00 to 7.00 | 6.00 to 7.00
COCCOc1ccc(Nc2ncc(F)c(NC3CCCC(NC(=O)c4coc(-c5ccccc5)n4)C3)n2)cc1 (stereo not shown) [Compound 14, 2-Phenyl-oxazole-4-carboxylic acid (3-{5-fluoro-2-[4-(2-methoxy-ethoxy)-phenylamino]-pyrimidin-4-ylamino}-cyclohexyl)-amide] | < 5.30 | 
COCCOc1ccc(Nc2ncc(F)c(N3CCCC4(CCN(C(=O)c5ccc(C(C)(C)C)cc5)C4)C3)n2)cc1 (stereo not shown) [Compound 15, (4-(tert-butyl)phenyl)(7-(5-fluoro-2-((4-(2-methoxyethoxy)phenyl)amino)pyrimidin-4-yl)-2,7-diazaspiro[4.5]decan-2-yl)methanone] | < 5.30 | 
COCCOc1ccc(Nc2ncc(F)c(N[C@H]3CCC[C@H](NC(=O)c4ccc(C(C)(C)C)cc4)[C@H]3O)n2)cc1 [Compound 25] | 5.30 to 6.00 | 

Now from value to compound:

pIC50 (full-length human BTK) | pIC50 [1] | Structure (SMILES)
6.00 to 7.00 | 6.00 to 7.00 | COCCOc1ccc(Nc2ncc(F)c(NC3CCCC(NC(=O)c4ccc(C(C)(C)C)cc4)C3)n2)cc1 (racemic) [Compound 3, 4-(tert-butyl)-N-(3-((5-fluoro-2-((4-(2-methoxyethoxy)phenyl)amino)pyrimidin-4-yl)amino)cyclohexyl)benzamide]
5.30 to 6.00 | 5.30 to 6.00 | COCCOc1ccc(Nc2ncc(F)c(NC3CCCC(NC(=O)CNc4cccc(Cl)c4)C3)n2)cc1 (racemic) [Compound 5]
< 5.30 |  | COCCOc1ccc(Nc2ncc(F)c(N3CCCC(CNC(=O)c4ccc(C(C)(C)C)cc4)C3)n2)cc1 (racemic) [Compound 7, 4-(tert-butyl)-N-((1-(5-fluoro-2-((4-(2-methoxyethoxy)phenyl)amino)pyrimidin-4-yl)piperidin-3-yl)methyl)benzamide]
> 7.00 | > 7.00 | COCCOc1ccc(Nc2ncc(F)c(N[C@@H]3CCC[C@@H](NC(=O)c4ccc(C(C)(C)C)cc4)C3)n2)cc1 (racemic) [Compound 19, 4-(tert-butyl)-N-(trans-3-((5-fluoro-2-((4-(2-methoxyethoxy)phenyl)amino)pyrimidin-4-yl)amino)cyclohexyl)benzamide]
< 5.30 |  | COCCOc1ccc(Nc2ncc(F)c(N3CCC[C@@H](NC(=O)c4ccc(C(C)(C)C)cc4)C3)n2)cc1 [Compound 1, (R)0-4-(tert-butyl)-N-(1-(5-fluoro-2-((4-(2-methoxyethoxy)phenyl)amino)pyrimidin-4-yl)piperidin-3-yl)benzamide]
5.30 to 6.00 | 6.00 to 7.00 | COCCOc1ccc(Nc2ncc(F)c(Nc3cccc(NC(=O)CNc4cccc(Cl)c4)c3)n2)cc1 [Compound 4, 2-((3-chlorophenyl)amino)-N-(3-((5-fluoro-2-((4-(2-methoxyethoxy)phenyl)amino)pyrimidin-4-yl)amino)phenyl)acetamide]
6.00 to 7.00 | 6.00 to 7.00 | COCCOc1ccc(Nc2ncc(F)c(NC3CCCC(NC(=O)c4ccc(C(C)(C)O)cc4)C3)n2)cc1 (stereo not shown) [Compound 12, N-(3-{5-Fluoro-2-[4-(2-methoxy-ethoxy)-phenylamino]-pyrimidin-4-ylamino}-cyclohexyl)0-4-(1-hydroxy-1-methyl-ethyl)-benzamide]
< 5.30 |  | COCCOc1ccc(Nc2ncc(F)c(NC3CCCC(NC(=O)Cc4ccc(C(C)(C)C)cc4)C3)n2)cc1 (stereo not shown) [Compound 13, 2-(4-tert-Butyl-phenyl)-N-(3-{5-fluoro-2-[4-(2-methoxy-ethoxy)-phenylamino]-pyrimidin-4-ylamino}-cyclohexyl)-acetamide]
< 5.30 |  | COCCOc1ccc(Nc2ncc(F)c(N3CC4CN(C(=O)c5ccc(C(C)(C)C)cc5)CC4C3)n2)cc1 (stereo not shown) [Compound 18, (4-(tert-butyl)phenyl)(5-(5-fluoro-2-((4-(2-methoxyethoxy)phenyl)amino)pyrimidin-4-yl)hexahydropyrrolo[3,4-c]pyrrol-2(1H)-yl)methanone]
< 5.30 |  | COCCOc1ccc(Nc2ncc(F)c(N3CCC4CN(C(=O)c5ccc(C(C)(C)C)cc5)CC43)n2)cc1 (stereo not shown) [Compound 20, (4-(tert-butyl)phenyl)(1-(5-fluoro-2-((4-(2-methoxyethoxy)phenyl)amino)pyrimidin-4-yl)hexahydropyrrolo[3,4-b]pyrrol-5(1H)-yl)methanone]
< 5.30 |  | COCCOc1ccc(Nc2ncc(F)c(N3CCCC4(CCCN(C(=O)c5ccc(C(C)(C)C)cc5)C4)C3)n2)cc1 (stereo not shown) [Compound 21, (4-(tert-butyl)phenyl)(8-(5-fluoro-2-((4-(2-methoxyethoxy)phenyl)amino)pyrimidin-4-yl)-2,8-diazaspiro[5.5]undecan-2-yl)methanone]
> 7.00 |  | COCCOc1ccc(Nc2ncc(F)c(N[C@@H]3CCC[C@@H](NC(=O)c4ccc(C(C)(C)C)cc4)C3)n2)cc1 [Compound 22, 4-(tert-butyl)-N-((1R,3R)-3-((5-fluoro-2-((4-(2-methoxyethoxy)phenyl)amino)pyrimidin-4-yl)amino)cyclohexyl) benzamide]
5.30 to 6.00 |  | COCCOc1ccc(Nc2ncc(F)c(N[C@H]3CCC[C@H](NC(=O)c4ccc(C(C)(C)C)cc4)C3)n2)cc1 [Compound 23, 4-(tert-butyl)-N-((1S,3S)-3-((5-fluoro-2-((4-(2-methoxyethoxy)phenyl)amino)pyrimidin-4-yl)amino)cyclohexyl)benzamide]
